Reference: US6395711B1, “Macrolides with antitumor activity” (priority 1997, dated 2002)
≈ marks a conversion by molar mass, not a printed value. Entries after “also recorded” stand apart in the source; their conditions may differ. Like-named read-outs stand apart in the source and are kept apart here.

Columns and labels:
[1] = test system: A-549 (monolayer culture of a human macrocytic lung carcinoma); assay: In vitro antitumor activity, A-549 cells; assay type: cell-based
Excerpt: (§1) The antitumor activity has been deteced in vitro by culturing the tumor cells following the methodology described by Bergeron, et al.(2), and by Schroeder, et al. (6). Activity against several human tumors as leukaemia, colon carcinoma, NSC lung carcinoma, melanoma, and the like has been observed.
(§2) Biological activity: the antitumor cells employed have been P-388 (suspension culture of a lymphoid neoplasm from DBA/2 mouse), A-549 (monolayer culture of a human macrocytic lung carcinoma, HT-29 (monolayer culture of a human colon carcinoma), and MEL-28 (monolayer culture of a human melanoma), and the other indicated cell lines.
(§3) P-388 cells were seeded into 16 mm wells at 1×10^4 cells per well in 1 ml aliquots of MEM 5FCS containing the indicated concentration of drug. A separate set of cultures without drug were seeded as control of growth to ensure that cells remained in exponential phase of growth. All determinations were carried out duplicated. After three days of incubation at 37° in 10% CO2 atmosphere with 98% humidity, the wells were stained with 0.1% Crystal Violet. The IC50 was calculated by comparing the growth in wells with drug with the growth in control wells without the drug.
(§4) In Table 5 are presented the activity expressed as IC50 in mcg/ml

[2] = test system: HT-29 (monolayer culture of a human colon carcinoma); assay: In vitro antitumor activity, HT-29 cells; assay type: cell-based
Excerpt: as §1, §2, §3, §4

P388MDR = assay: In vitro antitumor activity, P388MDR cells; assay type: cell-based, murine
Excerpt: as §1, §2, §3, §4

[3] = test system: MEL-28 (monolayer culture of a human melanoma); assay: In vitro antitumor activity, MEL-28 cells; assay type: cell-based
Excerpt: as §1, §2, §3, §4

[4] = test system: P-388 (suspension culture of a lymphoid neoplasm from DBA/2 mouse); assay: In vitro antitumor activity, P-388 cells; assay type: cell-based; conditions: for IC50: Mus musculus, P388, 72 h, read-out: IC50 P-388
Excerpt: as §1, §2, §3, §4

CV1 = assay: In vitro activity, CV1 cells; assay type: cell-based; conditions: Cercopithecidae, CV-1
Excerpt: as §1, §2, §3, §4

[5] = test system: several mammalian cancer cell lines; assay: In vitro antitumor activity, several mammalian cancer cell lines; assay type: cell-based
Excerpt: as §1

[6] = three days of incubation, Crystal Violet

| Compound | IC50 A-549 [1] | IC50 HT-29 [2] | IC50 P388MDR (P388MDR) | IC50 MEL-28 [3] | IC50 P-388 [4, 6] | further results |
| --- | --- | --- | --- | --- | --- | --- |
| COc1cccc2c1C(=O)c1c(O)c3c(c(O)c1C2=O)C[C@@](O)(C(=O)CO)C[C@@H]3O[C@H]1C[C@H](N)[C@H](O)[C@H](C)O1 [adriamicin] | 0.002 µg/mL (≈ 0.00368 µM) | 0.05 µg/mL (≈ 0.092 µM) | 1 µg/mL (≈ 1.84 µM) | 0.02 µg/mL (≈ 0.0368 µM) | 0.02 µg/mL (≈ 0.0368 µM) |  |
| CCCC1(O)C(O)C(C)C/C=C/C=C/C(CC(C)O)CCC2OC3(CCC(C)C(C(C)C(O)CC)O3)C(C)C(OC(=O)/C=C/C(C)C(O)C(C)C(O)C(O)C(O)C(O)C1O)C2C (centres unmarked) [IB-96212B] |  |  |  |  |  | IC50 (CV1): 0.001 µg/mL (≈ 0.00113 µM); IC50 ([1]; Homo sapiens, A549; read-out: IC50 A-549): 1 µg/mL (≈ 1.13 µM); IC50 ([2]; Homo sapiens, HT-29; read-out: IC50 HT-29): 1.2 µg/mL (≈ 1.36 µM); IC50 ([3]; Homo sapiens, SK-MEL-28; read-out: IC50 MEL-28): 1 µg/mL (≈ 1.13 µM); IC50 [4, 6]: 0.001 µg/mL (≈ 0.00113 µM); antitumor activity against several mammalian cancer cell lines (in words) [5]: activity comparable to the parent IB-96212; also recorded: good antitumor actvity |
| COc1cc([C@@H]2c3cc4c(cc3[C@@H](O[C@@H]3O[C@@H]5CO[C@@H](C)O[C@H]5[C@H](O)[C@H]3O)[C@H]3COC(=O)[C@H]23)OCO4)cc(OC)c1O [etopoxide] | 0.1 µg/mL (≈ 0.17 µM) | 1 µg/mL (≈ 1.7 µM) | 10 µg/mL (≈ 17 µM) | 0.5 µg/mL (≈ 0.85 µM) | 0.1 µg/mL (≈ 0.17 µM) |  |
| CC(=O)O[C@H]1C(=O)[C@@]2(C)[C@H]([C@H](OC(=O)c3ccccc3)[C@]3(O)C[C@H](OC(=O)[C@H](O)[C@@H](NC(=O)c4ccccc4)c4ccccc4)C(C)=C1C3(C)C)[C@]1(OC(C)=O)CO[C@@H]1C[C@@H]2O [taxol] |  |  |  |  |  | IC50 ([1]; Homo sapiens, A549, read-out: IC50 A-549): 0.002 µg/mL (≈ 0.00234 µM); IC50 ([2]; Homo sapiens, HT-29, read-out: IC50 HT-29): 0.002 µg/mL (≈ 0.00234 µM); IC50 (P388MDR; Mus musculus): > 2 µg/mL; IC50 ([3]; Homo sapiens, SK-MEL-28, read-out: IC50 MEL-28): 0.002 µg/mL (≈ 0.00234 µM); IC50 [4]: 0.2 µg/mL (≈ 0.234 µM) |
| N.N.[Cl][Pt][Cl] [cis-platin] | 2.5 µg/mL | 5 µg/mL | 2.5 µg/mL | 2.5 µg/mL | 2.5 µg/mL |  |
